As usually defined, the IC50 is the midpoint of a concentration-inhibition curve.

The experiment relates to HIV. As to the kind of experiment: MT4 assay: antiviral HIV activity in MT-4 cells. The class given is cell-based. The note with it: Human immunodeficiency virus 1, MT4, 96 h, read-out: HIV MT4 Assay IC50 (μM), HTLV-1 transformed cell line MT-4; read-out 96 hours later with cell titer glo; 10 point dose response. The protocol:
Antiviral HIV activity and cytotoxicity values for compounds of the invention from Table 1 were measured in parallel in the HTLV-1 transformed cell line MT-4 based on the method previously described (Hazen et al., 2007, In vitro antiviral activity of the novel, tyrosyl-based human immunodeficiency virus (HIV) type 1 protease inhibitor brecanavir (GW640385) in combination with other antiretrovirals and against a panel of protease inhibitor-resistant HIV (Hazen et al., “In vitro antiviral activity of the novel, tyrosyl-based human immunodeficiency virus (HIV) type 1 protease inhibitor brecanavir (GW640385) in combination with other antiretrovirals and against a panel of protease inhibitor-resistant HIV”, Antimicrob. Agents Chemother. 2007, 51: 3147-3154; and Pauwels et al., “Sensitive and rapid assay on MT-4 cells for the detection of antiviral compounds against the AIDS virus”, J. of Virological Methods 1987, 16: 171-185).
Luciferase activity was measured 96 hours later by adding a cell titer glo (Promega, Madison, Wis.). Percent inhibition of cell protection data was plotted relative to no compound control. Under the same condition, cytotoxicity of the compounds was determined using cell titer Glo™ (Promega, Madison, Wis.). IC50s were determined from a 10 point dose response curve using 3-4-fold serial dilution for each compound, which spans a concentration range>1000 fold.
These values are plotted against the molar compound concentrations using the standard four parameter logistic equation: y=((Vmax*x^n)/(K^n+x^n))+Y2
Y2=minimum y n=slope factor
Vmax=maximum y x=compound concentration [M]
(In ATP-based viability assays light output follows the ATP content of the culture.)

As to `Cc1nc2c(ccn2Cc2ccc(F)c(F)c2)c(-c2ccc3c(c2)CCCO3)c1[C@@H](OC(C)(C)C)C(=O)O` [Example 28, (R)-2-(tert-butoxy)-2-(4-(chroman-6-yl)-1-(3,4-difluorobenzyl)-6-methyl-1H-pyrrolo[2,3-b]pyridin-5-yl)acetic acid], the IC50 came out at 6.56 µM.
Turning to `Cc1nc2c(ccn2Cc2ccc(F)c(F)c2)c(-c2ccc3c(c2)CCCO3)c1[C@H](OC(C)(C)C)C(=O)O` [Example 29, (S)-2-(tert-butoxy)-2-(4-(chroman-6-yl)-1-(3,4-difluorobenzyl)-6-methyl-1H-pyrrolo[2,3-b]pyridin-5-yl)acetic acid], the IC50 amounted to 0.024 µM.
With `Cc1cc(Cn2ccc3c(-c4ccc5c(c4)CCCO5)c(C(OC(C)(C)C)C(=O)O)c(C)nc32)ccc1F` (stereo not shown) [Example 30, 2-(tert-butoxy)-2-(4-(chroman-6-yl)-1-(4-fluoro-3-methylbenzyl)-6-methyl-1H-pyrrolo[2,3-b]pyridin-5-yl)acetic acid], the IC50 worked out at 0.07 µM.
The result for `Cc1nc2c(ccn2Cc2ccc(F)cc2Cl)c(-c2ccc3c(c2)CCCO3)c1C(OC(C)(C)C)C(=O)O` (stereo not shown) [Example 31, 2-(tert-butoxy)-2-(1-(2-chloro-4-fluorobenzyl)-4-(chroman-6-yl)-6-methyl-1H-pyrrolo[2,3-b]pyridin-5-yl)acetic acid] reads 0.04 µM; that for `Cc1nc2c(ccn2Cc2cc(F)c(F)c(F)c2)c(-c2ccc3c(c2)CCCO3)c1C(OC(C)(C)C)C(=O)O` (stereo not shown) [Example 32, 2-(tert-butoxy)-2-(4-(chroman-6-yl)-6-methyl-1-(3,4,5-trifluorobenzyl)-1H-pyrrolo[2,3-b]pyridin-5-yl)acetic acid], 0.1 µM.
In the case of `Cc1nc2c(ccn2Cc2cc(F)ccc2F)c(-c2ccc3c(c2)CCCO3)c1C(OC(C)(C)C)C(=O)O` (stereo not shown) [Example 33, 2-(tert-butoxy)-2-(4-(chroman-6-yl)-1-(2,5-difluorobenzyl)-6-methyl-1H-pyrrolo[2,3-b]pyridin-5-yl)acetic acid], the IC50 was 0.096 µM.
As for `Cc1nc2c(ccn2Cc2cccc(F)c2F)c(-c2ccc3c(c2)CCCO3)c1C(OC(C)(C)C)C(=O)O` (stereo not shown) [Example 34, 2-(tert-butoxy)-2-(4-(chroman-6-yl)-1-(2,3-difluorobenzyl)-6-methyl-1H-pyrrolo[2,3-b]pyridin-5-yl)acetic acid], the figure is 0.06 µM.
On to `Cc1ccc(Cn2ccc3c(-c4ccc5c(c4)CCCO5)c(C(OC(C)(C)C)C(=O)O)c(C)nc32)cc1F` (stereo not shown) [Example 35, 2-(tert-butoxy)-2-(4-(chroman-6-yl)-1-(3-fluoro-4-methylbenzyl)-6-methyl-1H-pyrrolo[2,3-b]pyridin-5-yl)acetic acid], for which the IC50 worked out at 0.42 µM.
As for `Cc1ccc(-c2c([C@@H](OC(C)(C)C)C(=O)O)c(C)nc3c2ccn3Cc2ccc(F)cc2F)cc1` [Example 36, (R)-2-(tert-butoxy)-2-(1-(2,4-difluorobenzyl)-6-methyl-4-(p-tolyl)-1H-pyrrolo[2,3-b]pyridin-5-yl)acetic acid], the IC50 was 50 µM.
Regarding `Cc1ccc(-c2c([C@H](OC(C)(C)C)C(=O)O)c(C)nc3c2ccn3Cc2ccc(F)cc2F)cc1` [Example 37, (S)-2-(tert-butoxy)-2-(1-(2,4-difluorobenzyl)-6-methyl-4-(p-tolyl)-1H-pyrrolo[2,3-b]pyridin-5-yl)acetic acid], the IC50 worked out at 0.07 µM.
Take `COc1ccc(Cn2ccc3c(-c4ccc5c(c4)CCCO5)c(C(OC(C)(C)C)C(=O)O)c(C)nc32)cc1` (stereo not shown) [Example 38, 2-(tert-butoxy)-2-(4-(chroman-6-yl)-1-(4-methoxybenzyl)-6-methyl-1H-pyrrolo[2,3-b]pyridin-5-yl)acetic acid]: the IC50 was determined as 0.12 µM.
For `Cc1nc2c(ccn2Cc2ccccc2F)c(-c2ccc3c(c2)CCCO3)c1C(OC(C)(C)C)C(=O)O` (stereo not shown) [Example 39, 2-(tert-butoxy)-2-(4-(chroman-6-yl)-1-(2-fluorobenzyl)-6-methyl-1H-pyrrolo[2,3-b]pyridin-5-yl)acetic acid], the IC50 is 0.068 µM.
Regarding `Cc1nc2c(ccn2Cc2cccc(Cl)c2F)c(-c2ccc3c(c2)CCCO3)c1C(OC(C)(C)C)C(=O)O` (stereo not shown) [Example 40, 2-(tert-butoxy)-2-(1-(3-chloro-2-fluorobenzyl)-4-(chroman-6-yl)-6-methyl-1H-pyrrolo[2,3-b]pyridin-5-yl)acetic acid], the IC50 amounted to 0.125 µM.
For `Cc1nc2c(ccn2Cc2ccc(C(F)(F)F)o2)c(-c2ccc3c(c2)CCCO3)c1C(OC(C)(C)C)C(=O)O` (stereo not shown) [Example 41], the IC50 amounted to 0.1 µM.
As for `Cc1nc2c(ccn2CCc2ccc(F)cc2)c(-c2ccc3c(c2)CCCO3)c1C(OC(C)(C)C)C(=O)O` (stereo not shown) [Example 42, 2-(tert-butoxy)-2-(4-(chroman-6-yl)-1-(4-fluorophenethyl)-6-methyl-1H-pyrrolo[2,3-b]pyridin-5-yl)acetic acid], the figure is 0.58 µM.
For the compound `Cc1nc2c(ccn2Cc2ccccc2)c(-c2ccc3c(c2)CCCO3)c1C(OC(C)(C)C)C(=O)O` (stereo not shown) [Example 43, 2-(1-benzyl-4-(chroman-6-yl)-6-methyl-1H-pyrrolo[2,3-b]pyridin-5-yl)-2-(tert-butoxy)acetic acid], the IC50 is 0.084 µM.
For `Cc1nc2c(ccn2Cc2c(F)cc(F)cc2F)c(-c2ccc3c(c2)CCCO3)c1C(OC(C)(C)C)C(=O)O` (stereo not shown) [Example 44, 2-(tert-butoxy)-2-(4-(chroman-6-yl)-6-methyl-1-(2,4,6-trifluorobenzyl)-1H-pyrrolo[2,3-b]pyridin-5-yl)acetic acid], the IC50 is 0.053 µM.
On to `COc1ccc(Cn2ccc3c(-c4ccc5c(c4)CCCO5)c(C(OC(C)(C)C)C(=O)O)c(C)nc32)cc1F` (stereo not shown) [Example 45, 2-(tert-butoxy)-2-(4-(chroman-6-yl)-1-(3-fluoro-4-methoxybenzyl)-6-methyl-1H-pyrrolo[2,3-b]pyridin-5-yl)acetic acid], for which the IC50 is 0.055 µM.
The result for `COc1ccc(F)c(F)c1Cn1ccc2c(-c3ccc(C)cc3)c(C(OC(C)(C)C)C(=O)O)c(C)nc21` (stereo not shown) [Example 46, 2-(tert-butoxy)-2-(1-(2,3-difluoro-6-methoxybenzyl)-6-methyl-4-(p-tolyl)-1H-pyrrolo[2,3-b]pyridin-5-yl)acetic acid] reads 0.1 µM; that for `Cc1nc2c(ccn2Cc2ccc(F)cc2Cl)c(-c2ccc3c(c2)CCCO3)c1[C@@H](OC(C)(C)C)C(=O)O` [Example 47, (R)-2-(tert-butoxy)-2-(1-(2-chloro-4-fluorobenzyl)-4-(chroman-6-yl)-6-methyl-1H-pyrrolo[2,3-b]pyridin-5-yl)acetic acid], 50 µM; that for `Cc1nc2c(ccn2Cc2ccc(F)cc2Cl)c(-c2ccc3c(c2)CCCO3)c1[C@H](OC(C)(C)C)C(=O)O` [Example 48, (S)-2-(tert-butoxy)-2-(1-(2-chloro-4-fluorobenzyl)-4-(chroman-6-yl)-6-methyl-1H-pyrrolo[2,3-b]pyridin-5-yl)acetic acid], 0.03 µM.
Take `Cc1ccc(-c2c(C(OC(C)(C)C)C(=O)O)c(C)nc3c2ccn3Cc2c(Cl)ccc(F)c2F)cc1` (stereo not shown) [Example 49, 2-(tert-butoxy)-2-(1-(6-chloro-2,3-difluorobenzyl)-6-methyl-4-(p-tolyl)-1H-pyrrolo[2,3-b]pyridin-5-yl)acetic acid]: the IC50 was determined as 0.123 µM.
`Cc1nc2c(ccn2Cc2c(Cl)cccc2Cl)c(-c2ccc3c(c2)CCCO3)c1C(OC(C)(C)C)C(=O)O` (stereo not shown) [Example 50, 2-(tert-butoxy)-2-(4-(chroman-6-yl)-1-(2,6-dichlorobenzyl)-6-methyl-1H-pyrrolo[2,3-b]pyridin-5-yl)acetic acid]: the 50% inhibitory concentration (IC50) was 0.035 µM.
As for `Cc1nc2c(ccn2Cc2c(F)cccc2F)c(-c2ccc3c(c2)CCCO3)c1C(OC(C)(C)C)C(=O)O` (stereo not shown) [Example 51, 2-(tert-butoxy)-2-(4-(chroman-6-yl)-1-(2,6-difluorobenzyl)-6-methyl-1H-pyrrolo[2,3-b]pyridin-5-yl)acetic acid], the IC50 was 0.09 µM.
As for `COc1ccc(Cn2ccc3c(-c4ccc5c(c4)CCCO5)c(C(OC(C)(C)C)C(=O)O)c(C)nc32)cc1C(F)(F)F` (stereo not shown) [Example 52, 2-(tert-butoxy)-2-(4-(chroman-6-yl)-1-(4-methoxy-3-(trifluoromethyl)benzyl)-6-methyl-1H-pyrrolo[2,3-b]pyridin-5-yl)acetic acid], the figure is 0.37 µM; as for `Cc1ccc(F)c(Cn2ccc3c(-c4ccc5c(c4)CCCO5)c(C(OC(C)(C)C)C(=O)O)c(C)nc32)c1Cl` (stereo not shown) [Example 53, 2-(tert-butoxy)-2-(1-(2-chloro-6-fluoro-3-methylbenzyl)-4-(chroman-6-yl)-6-methyl-1H-pyrrolo[2,3-b]pyridin-5-yl)acetic acid], 0.055 µM; as for `Cc1ccc(F)cc1Cn1ccc2c(-c3ccc4c(c3)CCCO4)c(C(OC(C)(C)C)C(=O)O)c(C)nc21` (stereo not shown) [Example 54, 2-(tert-butoxy)-2-(4-(chroman-6-yl)-1-(5-fluoro-2-methylbenzyl)-6-methyl-1H-pyrrolo[2,3-b]pyridin-5-yl)acetic acid], 0.045 µM.
On to `COc1cccc(F)c1Cn1ccc2c(-c3ccc4c(c3)CCCO4)c(C(OC(C)(C)C)C(=O)O)c(C)nc21` (stereo not shown) [Example 55, 2-(tert-butoxy)-2-(4-(chroman-6-yl)-1-(2-fluoro-6-methoxybenzyl)-6-methyl-1H-pyrrolo[2,3-b]pyridin-5-yl)acetic acid], for which the IC50 amounted to 0.021 µM.

(Values after patent publication US8609653B2, “Azaindole compounds and methods for treating HIV” (priority 2011, dated 2013).)
